According to US11952387B2, “Bicyclic heteroaromatic ring derivative” (priority 2018, dated 2024):

tested on: HRV14; experiment: Inhibitory activity against human rhinovirus infection and replication (quantitative real-time PCR); type: cell-based; conditions: Human rhinovirus sp., MRC5; 100 nmol/L test compound; MRC-5 cells infected with HRV14 at MOI=0.2; 48 hours; viral load normalized to 18s rRNA; read-out: Percent Inhibition
How it was run: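 Near-confluent MRC-5 cells were pretreated 30 min with compound at 100 or 1000 nmol/L, then infected with HRV14 (MOI 0.2) in compound-containing medium (2% FBS, 30 mmol/L MgCl2) and cultured 48 h at 35 °C. HRV14 RNA by qRT-PCR, normalized to 18S rRNA; percent inhibition versus untreated infected cells.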

Row | SMILES | inhibition at 0.1 µM
1 | COc1ccc(NS(=O)(=O)c2cc(-c3c(C)nc4sc(C(C)(C)O)cn34)ccc2OC)cc1 [Example 2-79] | 50 to 80%
2 | COc1ccc(-c2c(C)nc3sc(C(C)(C)O)cn23)cc1S(=O)(=O)Nc1cccc(O)c1 [Example 2-80] | ≤ 50%
3 | COc1ccc(-c2c(C)nc3sc(C(C)(C)O)cn23)cc1S(=O)(=O)Nc1ccccc1O [Example 2-81] | > 80%
4 | COc1ccc(-c2c(C)nc3sc(C(O)(C4CC4)C4CC4)nn23)cc1S(=O)(=O)[C@H]1C[C@](C)(O)C1 [Example 2-82] | > 80%
5 | Cc1nc2sc(C(C)(C)O)nn2c1-c1cc2c(c(S(=O)(=O)CC(C)(C)O)c1)OCC2 [Example 2-83] | 50 to 80%
6 | COc1ccc(-c2c(C)nc3sc(C(O)(C4CC4)C4CC4)nn23)cc1S(=O)(=O)C1CN(C(=O)OC(C)(C)C)C1 [Example 2-84] | > 80%
7 | COc1ccc(-c2c(C)nc3sc(C(C)(C)O)nn23)cc1S(=O)(=O)Nc1cccnc1 [Example 2-85] | ≤ 50%
8 | COc1ccc(-c2c(C)nc3sc(C(C)(C)O)nn23)cc1S(=O)(=O)Nc1ccc(O)cc1 [Example 2-86] | > 80%
9 | Cc1nc2sc(C(O)(C3CC3)C3CC3)nn2c1-c1ccc(C(F)(F)F)c(S(=O)(=O)CC(C)(C)O)c1 [Example 2-87] | > 80%
10 | [2H]C([2H])([2H])Oc1ccc(-c2c(C)nc3sc(C(C)(C)O)cn23)cc1S(=O)(=O)N[C@H]1CC[C@@H](O)CC1 [Example 2-88] | ≤ 50%
11 | [2H]C([2H])([2H])Oc1ccc(-c2c(C)nc3sc(C(C)(C)O)nn23)cc1S(=O)(=O)N[C@H]1CC[C@@H](O)CC1 [Example 2-89] | 50 to 80%
12 | [2H]C([2H])([2H])Oc1ccc(-c2c(C)nc3sc(C4CC4)nn23)cc1S(=O)(=O)NC(C)(C)CO [Example 2-90] | > 80%
13 | COc1ccc(-c2c(C)nc3sc(C(C)(C)O)nn23)cc1S(=O)(=O)Cc1ccccc1 [Example 2-91] | > 80%
14 | COc1ccc(-c2c(C)nc3sc(C(C)(C)O)nn23)cc1S(=O)(=O)Cc1ccc(F)cc1 [Example 2-92] | 50 to 80%
15 | COc1ccc(-c2c(C)nc3sc(C(C)(C)O)nn23)cc1S(=O)(=O)Cc1ccc(C#N)cc1 [Example 2-93] | 50 to 80%
16 | COc1ccc(-c2c(C)nc3sc(C(C)(C)O)nn23)cc1S(=O)(=O)Cc1cccnc1 [Example 2-94] | 50 to 80%
17 | COc1ccc(-c2c(C)nc3sc(C(C)(C)O)nn23)cc1S(=O)(=O)Cc1ccncc1 [Example 2-95] | 50 to 80%
18 | COc1ccc(-c2c(C)nc3sc(C(O)(C4CC4)C4CC4)nn23)cc1S(=O)(=O)[C@H]1C[C@@H](O)C1 [Example 2-96] | > 80%
19 | [2H]C([2H])([2H])C(O)(CS(=O)(=O)c1cc(-c2c(C)nc3sc(C(C)(C)O)nn23)ccc1C(F)(F)F)C([2H])([2H])[2H] [Example 2-97] | > 80%
20 | COc1ccc(-c2c(C)nc3sc(C(O)(C4CC4)C4CC4)nn23)cc1S(=O)(=O)CC(C)(C)C#N [Example 2-98] | > 80%
21 | Cc1nc2sc(C(C)(C)O)nn2c1-c1ccc(C(F)(F)F)c(S(=O)(=O)NC2(C(C)(C)O)CC2)c1 [Example 3-2] | > 80%
22 | COc1ccc(-c2c(C)nc3sc(C(C)(C)O)nn23)cc1S(=O)(=O)Nc1ccc(C(C)(C)O)cc1 [Example 3-3] | ≤ 50%

Row | SMILES | inhibition at 0.1 µM
23 | COc1ccc(-c2c(C)nc3sc(C(C)(C)O)nn23)cc1S(=O)(=O)C(C)(C)CO [Example 4-1] | > 80%
24 | Cc1nc2sc(C(C)(C)O)nn2c1-c1ccc(C(F)(F)F)c(S(=O)(=O)C2(CO)CC2)c1 [Example 4-2] | > 80%
25 | Cc1nc2sc(C(C)(C)O)nn2c1-c1ccc(C(F)(F)F)c(S(=O)(=O)C(C)(C)CO)c1 [Example 4-3] | > 80%
26 | COc1ccc(-c2c(C)nc3sc(C(C)(C)O)nn23)cc1S(=O)(=O)C1(CO)CC1 [Example 4-4] | 50 to 80%
27 | COc1ccc(-c2c(C)nc3sc(C(O)(C4CC4)C4CC4)nn23)cc1S(=O)(=O)C(C)(C)CO [Example 4-5] | > 80%
28 | Cc1nc2sc(C(C)(C)O)nn2c1-c1ccc(C(F)(F)F)c(S(=O)(=O)C(C)(C)C(=O)O)c1 [Example 5] | ≤ 50%
29 | COc1ccc(-c2c(C)nc3sc(C(C)(C)O)nn23)cc1S(=O)(=O)C(C)(C)C(N)=O [Example 6-1] | 50 to 80%
30 | Cc1nc2sc(C(C)(C)O)nn2c1-c1ccc(C(F)(F)F)c(S(=O)(=O)C(C)(C)C(N)=O)c1 [Example 6-2] | ≤ 50%
31 | COc1ccc(-c2c(C)nc3sc(C(O)(C4CC4)C4CC4)nn23)cc1S(=O)(=O)C(C)(C)C(N)=O [Example 6-3] | > 80%
32 | COc1c(F)cc(-c2c(C)nc3sc(C(O)(C4CC4)C4CC4)nn23)cc1S(=O)(=O)C(C)(C)C(N)=O [Example 6-4] | > 80%
33 | COc1ccc(-c2c(C)nc3sc(C(C)(C)O)nn23)cc1S(=O)(=O)C(C)(C)C#N [Example 7-1] | > 80%
34 | COc1ccc(-c2c(C)nc3sc(C(O)(C4CC4)C4CC4)nn23)cc1S(=O)(=O)C(C)(C)C#N [Example 7-2] | > 80%
35 | CNC(=O)C(C)(C)S(=O)(=O)c1cc(-c2c(C)nc3sc(C(C)(C)O)nn23)ccc1OC [Example 8-1] | 50 to 80%
36 | COc1ccc(-c2c(C)nc3sc(C(O)(C4CC4)C4CC4)nn23)cc1S(=O)(=O)C(C)(C)C(=O)NCC(C)(C)O [Example 8-3] | > 80%
37 | CNC(=O)C(C)(C)S(=O)(=O)c1cc(-c2c(C)nc3sc(C(O)(C4CC4)C4CC4)nn23)ccc1OC [Example 8-4] | > 80%
38 | Cc1nc2sc(C(C)(C)O)nn2c1-c1ccc(C(F)(F)F)c(S(=O)(=O)C2CN(S(C)(=O)=O)C2)c1 [Example 9-1] | > 80%
39 | COc1ccc(-c2c(C)nc3sc(C(C)(C)O)nn23)cc1S(=O)(=O)C1CN(S(C)(=O)=O)C1 [Example 9-2] | 50 to 80%
40 | COc1ccc(-c2c(C)nc3sc(C(O)(C4CC4)C4CC4)nn23)cc1S(=O)(=O)C1CN(S(C)(=O)=O)C1 [Example 9-3] | > 80%
41 | CC(=O)N1CC(S(=O)(=O)c2cc(-c3c(C)nc4sc(C(C)(C)O)nn34)ccc2C(F)(F)F)C1 [Example 10-1] | > 80%
42 | COc1ccc(-c2c(C)nc3sc(C(C)(C)O)nn23)cc1S(=O)(=O)C1CN(C(C)=O)C1 [Example 10-2] | ≤ 50%
43 | COc1ccc(-c2c(C)nc3sc(C(O)(C4CC4)C4CC4)nn23)cc1S(=O)(=O)C1CN(C(C)=O)C1 [Example 10-3] | > 80%
44 | Cc1nc2sc(C(C)(C)O)nn2c1-c1ccc(C(F)(F)F)c(S(=O)(=O)C2CN(C(N)=O)C2)c1 [Example 11] | ≤ 50%

Row | SMILES | inhibition at 0.1 µM
45 | Cc1nc2sc(C(C)(C)O)nn2c1-c1ccc(C(F)(F)F)c(S(=O)(=O)C2CN(C)C2)c1 [Example 12-1] | 50 to 80%
46 | Cc1nc2sc(C(C)(C)O)nn2c1-c1ccc(C(F)(F)F)c(S(=O)(=O)C2CN(CCO)C2)c1 [Example 12-2] | 50 to 80%
47 | COc1ccc(-c2c(C)nc3sc(C(C)(C)O)nn23)cc1S(=O)(=O)C1CCC(=O)CC1 [Example 13] | ≤ 50%
48 | COc1ccc(-c2c(C)nc3sc(C(C)(C)O)nn23)cc1S(=O)(=O)C1CCC(O)CC1 (centres unmarked) [Example 14] | ≤ 50%
49 | COc1ccc(-c2c(C)nc3sc(C(C)(C)O)nn23)cc1S(=O)(=O)[C@H]1CC[C@@](C)(O)CC1 [Example 15-1] | ≤ 50%
50 | COc1ccc(-c2c(C)nc3sc(C(C)(C)O)nn23)cc1S(=O)(=O)[C@H]1CC[C@](C)(O)CC1 [Example 15-2] | 50 to 80%
51 | Cc1nc2sc(C(C)(C)O)nn2c1-c1ccc(O)c(S(=O)(=O)CC(C)(C)O)c1 [Example 16] | ≤ 50%
52 | Cc1nc2sc(C(C)(C)O)nn2c1-c1ccc(CO)c(S(=O)(=O)CC(C)(C)O)c1 [Example 17] | ≤ 50%
53 | COc1ccc(-c2c(C)nc3sc(C(C)(C)C(=O)O)nn23)cc1S(=O)(=O)N[C@H]1CC[C@@H](O)CC1 [Example 18-1] | 50 to 80%
54 | COc1ncc(-c2c(C)nc3sc(C(C)(C)C(=O)O)nn23)cc1S(=O)(=O)N[C@H]1CC[C@@H](O)CC1 [Example 18-2] | ≤ 50%
55 | COc1ccc(-c2c(C)nc3sc(C(C)(C)C(=O)N(C)C)nn23)cc1S(=O)(=O)N[C@H]1CC[C@@H](O)CC1 [Example 19] | > 80%
56 | COc1ccc(-c2c(C)nc3sc(C(C)(C)CO)nn23)cc1S(=O)(=O)N[C@H]1CC[C@@H](O)CC1 [Example 20-1] | > 80%
57 | COc1ncc(-c2c(C)nc3sc(C(C)(C)CO)nn23)cc1S(=O)(=O)N[C@H]1CC[C@@H](O)CC1 [Example 20-2] | ≤ 50%
58 | COc1ccc(-c2c(C)nc3sc(C(C)(C)O)cn23)cc1S(=O)(=O)N[C@H]1CC[C@@H](O)CC1 [Example 21-1] | ≤ 50%
59 | COc1ccc(-c2c(C)nc3sc(C(C)(C)O)nn23)cc1S(=O)(=O)NC[C@H]1C[C@@H](O)C1 [Example 21-3] | 50 to 80%
60 | COc1ccc(-c2c(C)nc3sc(C(C)(C)O)nn23)cc1S(=O)(=O)NCC1COC1 [Example 21-4] | 50 to 80%
61 | COc1ccc(-c2c(C)nc3sc(C(C)(C)O)nn23)cc1S(=O)(=O)N[C@H]1C[C@H](CO)C1 [Example 21-5] | ≤ 50%
62 | COc1ccc(-c2c(C)nc3sc(C(C)(C)O)nn23)cc1S(=O)(=O)NC[C@H]1C[C@H](O)C1 [Example 21-6] | ≤ 50%
63 | COc1ccc(-c2c(C)nc3sc(C(C)(C)O)nn23)cc1S(=O)(=O)NCC(C)(C)O [Example 21-7] | 50 to 80%
64 | COc1ccc(-c2c(C)nc3sc(C(C)(C)O)nn23)cc1S(=O)(=O)N[C@H]1C[C@H](O)C1 [Example 21-8] | 50 to 80%
65 | COc1ccc(-c2c(C)nc3sc(C(C)(C)O)nn23)cc1S(=O)(=O)N[C@H]1C[C@@H](CO)C1 [Example 21-9] | ≤ 50%
